US20030008814A1, “Pseudomycin phosphate prodrugs” (priority 2002, published 2003)

Assay: Tail vein toxicity
Type: in vivo
Details: male ICR mice, IV lateral tail vein, 20 mg/kg at 0, 24, 48 and 72 hours, monitored 7 days; in comparison to pseudomycin B
Protocol: Mice were treated intravenously (IV) through the lateral tail vein with 0.1 ml of testing compound (20 mg/kg) at 0, 24, 48 and 72 hours. Two mice were included in each group. Compounds were formulated in 5.0% dextrose and sterile water for injection. The mice were monitored for 7 days following the first treatment and observed closely for signs of irritation including erythema, swelling, discoloration, necrosis, tail loss and any other signs of adverse effects indicating toxicity.
The mice used in the study were outbred, male ICR mice having an average weight between 18-20 g (available from Harlan Sprangue Dawley, Indianapolis, Ind.

## C/C=C1\NC(=O)[C@H]([C@H](C)O)NC(=O)[C@H](CCNC(=O)OCc2ccc(OP(=O)(OCc3ccccc3)OCc3ccccc3)cc2)NC(=O)[C@H](CCCCNC(=O)OCc2ccc(OP(=O)(OCc3ccccc3)OCc3ccccc3)cc2)NC(=O)[C@H](CC(=O)O)NC(=O)[C@@H](CCNC(=O)OCc2ccc(OP(=O)(OCc3ccccc3)OCc3ccccc3)cc2)NC(=O)[C@@H](NC(=O)CC(O)CCCCCCCCCCC)COC(=O)[C@H]([C@H](O)CCl)NC(=O)[C@H](C(O)C(=O)O)NC1=O (stereo partly shown) [Compound 1A-1]
  tail vein toxicity: improvement in tail vein toxicity
